Measured values from PMC9105604, “Parathyroid Hormone-Related Peptide and Its Analog, Abaloparatide, Attenuate Lethal Myocardial Ischemia-Reperfusion Injury” (Journal of Clinical Medicine, 2022).

Key:
[1] = system: HL-1 cardiomyocytes; test: MTT viability of HL-1 cardiomyocytes with or without MEK-ERK inhibitor PD98059 (Protocol 2B)
Experimental: (§2) The primary endpoint for Protocols 1A–C was HL-1 cell viability assessed using the MTT (3-(4,5-dimethythiazol-2-yl)-2,5-diphenyl tetrazolium bromide) assay (Sigma Aldrich, St. Louis, MO, USA). This well-established colorimetric method is based on the reduction of the soluble tetrazolium salt to purple formazan crystals by viable, metabolically active cells and quantified by measuring absorbance at 570 nm [25].
At 24 h after the onset of treatment, cells underwent either 2 h of SI + 24 h reoxygenation or a time-matched period of normoxia (n = 2 independent replicates per group). At 24 h following relief of SI, cell viability was quantified using the MTT assay as described in Protocol 1.

[2] = system: HL-1 cardiomyocytes; test: MTT viability of HL-1 cardiomyocytes, simulated ischemia-reoxygenation or normoxia (Protocol 1); assay type: cell-based
Experimental: Before initiating experiments, HL-1 cells were grown to ~80% confluence in 95% room air/5% CO2 at 37 °C in Claycomb medium supplemented with fetal bovine serum (10%), L-glutamine (2 mM), norepinephrine (0.1 mM), penicillin (100 U/mL) and streptomycin (100 µg/mL) [21, 22].
At 24 h after the onset of treatment, cells were subjected to 2 h of simulated ischemia (SI) + 24 h reoxygenation. During SI, Claycomb medium containing drug/placebo was replaced with drug-free hypoxia buffer at pH 6.6 (composed of NaCl (125 nM), KCl (8 mM), KH2PO4 (1.2 mM),1.25 mM MgSO4 (1.25 mM), CaCl2 (1.2 mM), NaHCO3 (6.25 mM), HEPES (20 mM), glucose (5.5 mM), 2-deoxy-D-glucose (20 mM), Na-lactate (5 mM): all ingredients from Sigma Aldrich, St. Louis, MO, USA) and the culture plates were sealed in a hermetic chamber with GasPak EZ Gas Generating Sachets (BD Biosciences, San Jose, CA, USA). Reoxygenation was achieved by removing the plates from the sealed chamber and exchanging the hypoxia buffer with serum-free Claycomb medium [21, 22]. Additional time- and treatment-matched normoxic cultures served as controls (n = 4 independent replicates per group).
as §2

[3] = system: phospho-Akt; test: Immunoblot of phospho-Akt in HL-1 cells after simulated ischemia-reperfusion (Protocol 2A); assay type: cell-based; settings: 10 nM, 24 h pretreatment, 2 h SI + 10 min reoxygenation; n = 3; vehicle 0.14 ± 0.01
Experimental: (§1) At 10 min post-reoxygenation, cells were harvested and lysed in RIPA buffer containing 2 protease and phosphatase inhibitors. The lysates were centrifuged at 14,000× g for 15 min, and the resultant supernatant was collected and probed for the expression of ERK (total and phosphorylated: antibodies from Cell Signaling Technology Inc., Danvers, MA, USA), PI3 kinase/Akt (total and phosphorylated: Cell Signaling Technology Inc., Danvers, MA, USA) and GAPDH (Sigma Aldrich Inc., St. Louis, MO, USA) using standard methods. Immunoreactive bands were identified by incubation with horseradish peroxidase (HRP)-conjugated secondary antibody, visualized using x-ray film, and quantified using the NIH ImageJ software.

[4] = system: phospho-ERK; test: Immunoblot of phospho-ERK in HL-1 cells after simulated ischemia-reperfusion (Protocol 2A); assay type: cell-based; settings: 10 nM, 24 h pretreatment, 2 h SI + 10 min reoxygenation; n = 3; vehicle 0.33 ± 0.09
Experimental: as §1

[5] = in vivo, cited from earlier work

| Compound | HL-1 cell viability under normoxic conditions, alone or in combination (Protocol 2B) ([1]; peptides 10 nM, PD98059 5 µM, 24 h, normoxia, n = 2, no statistics) | Concentration dependence of % viability / magnitude of protection after SI-reoxygenation ([2]; 24 h pretreatment, 2 h SI + 24 h reoxygenation, Protocols 1A, 1B, confirmed in 1C) | HL-1 cell viability after SI-reoxygenation ([2]; 24 h pretreatment, then 2 h simulated ischemia + 24 h reoxygenation, PTHrP(1-36) 10, 100 nM (n = 4), abaloparatide 0.1-100 nM (n = 5), versus vehicle) | HL-1 cell viability under normoxic conditions ([2]; time- and treatment-matched normoxic cultures) | phospho-Akt expression (normalized to GAPDH) [3] | phospho-ERK expression (normalized to total ERK) [4] | Hemodynamic effects in post-menopausal women with osteoporosis ([5]; sc) | Incidence of adverse cardiac events in treated subjects [5] | SI-reoxygenation-induced cell death (Protocol 2B) ([1]; 10 nM, 24 h pretreatment, 2 h SI + 24 h reoxygenation, n = 2, versus vehicle) | Protective effect on HL-1 viability with co-administration of PD98059 ([1]; peptide 10 nM + PD98059 5 µM, 24 h, then 2 h SI + 24 h reoxygenation, n = 2) |
| --- | --- | --- | --- | --- | --- | --- | --- | --- | --- | --- |
| COc1cccc(-c2cc(=O)c3ccccc3o2)c1N [PD98059] | neither PTHrP(1-36), abaloparatide, or PD98059, given alone or in combination, had an effect | – | – | – | – | – | – | – | – | – |
| abaloparatide | – | modestly but significantly greater in cells incubated with 10 nM | significantly better maintained | no effect | better preservation | modest but significant increase | modest and transient increases in heart rate and decreases in supine blood pressure | no evidence of an increase | attenuated | abrogated |
